Among the targets are D(3) dopamine receptor (Homo sapiens, UniProt P35462); Melanocortin receptor 3 (Homo sapiens, UniProt P41968); Vasopressin V1a receptor (Homo sapiens, UniProt P37288).
In another assay the target is Cannabinoid receptor 1 (Homo sapiens, UniProt P21554). The format is functional, cell-based.
In assay [1] the target is Growth hormone secretagogue receptor type 1 (Homo sapiens, UniProt Q92847).
In assay [2] the target is 5-hydroxytryptamine receptor 2A (Homo sapiens, UniProt P28223). The format is functional, cell-based.
Assay [3] has as its target 5-hydroxytryptamine receptor 2B (Homo sapiens, UniProt P41595). Format: functional, cell-based.
A further assay addresses T1, Thromboxane A2 receptor (Homo sapiens, UniProt P21731).
T1 sequence (P21731 whole entry): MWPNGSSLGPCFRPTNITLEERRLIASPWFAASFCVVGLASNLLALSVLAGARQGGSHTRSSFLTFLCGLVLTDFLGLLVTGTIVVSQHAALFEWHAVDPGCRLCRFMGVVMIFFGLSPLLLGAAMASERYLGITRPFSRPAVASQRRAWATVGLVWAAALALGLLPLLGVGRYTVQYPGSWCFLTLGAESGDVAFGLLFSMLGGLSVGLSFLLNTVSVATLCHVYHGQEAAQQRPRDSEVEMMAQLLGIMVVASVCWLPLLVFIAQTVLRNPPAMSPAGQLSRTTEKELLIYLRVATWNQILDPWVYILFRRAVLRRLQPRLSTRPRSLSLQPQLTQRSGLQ

For assay [4], the target named is T2, Gastrin/cholecystokinin type B receptor (Homo sapiens, UniProt P32239).
T2 sequence (P32239 whole entry): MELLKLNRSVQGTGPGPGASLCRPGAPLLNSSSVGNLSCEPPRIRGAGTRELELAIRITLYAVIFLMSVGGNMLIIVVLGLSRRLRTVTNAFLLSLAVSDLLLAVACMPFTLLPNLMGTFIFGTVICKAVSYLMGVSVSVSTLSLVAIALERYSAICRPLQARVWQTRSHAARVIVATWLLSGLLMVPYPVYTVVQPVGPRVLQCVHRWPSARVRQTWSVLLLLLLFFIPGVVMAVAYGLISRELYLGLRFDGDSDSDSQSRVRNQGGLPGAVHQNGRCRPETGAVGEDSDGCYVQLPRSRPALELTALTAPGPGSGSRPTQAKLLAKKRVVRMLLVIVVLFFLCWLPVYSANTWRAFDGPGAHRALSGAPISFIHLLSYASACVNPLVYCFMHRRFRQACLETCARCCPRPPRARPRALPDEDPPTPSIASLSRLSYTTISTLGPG

Assay [5] has as its target Sodium-dependent noradrenaline transporter (Homo sapiens, UniProt P23975).
For a further assay, the target named is T3, Progesterone receptor (Homo sapiens, UniProt P06401).
T3 sequence (P06401 whole entry): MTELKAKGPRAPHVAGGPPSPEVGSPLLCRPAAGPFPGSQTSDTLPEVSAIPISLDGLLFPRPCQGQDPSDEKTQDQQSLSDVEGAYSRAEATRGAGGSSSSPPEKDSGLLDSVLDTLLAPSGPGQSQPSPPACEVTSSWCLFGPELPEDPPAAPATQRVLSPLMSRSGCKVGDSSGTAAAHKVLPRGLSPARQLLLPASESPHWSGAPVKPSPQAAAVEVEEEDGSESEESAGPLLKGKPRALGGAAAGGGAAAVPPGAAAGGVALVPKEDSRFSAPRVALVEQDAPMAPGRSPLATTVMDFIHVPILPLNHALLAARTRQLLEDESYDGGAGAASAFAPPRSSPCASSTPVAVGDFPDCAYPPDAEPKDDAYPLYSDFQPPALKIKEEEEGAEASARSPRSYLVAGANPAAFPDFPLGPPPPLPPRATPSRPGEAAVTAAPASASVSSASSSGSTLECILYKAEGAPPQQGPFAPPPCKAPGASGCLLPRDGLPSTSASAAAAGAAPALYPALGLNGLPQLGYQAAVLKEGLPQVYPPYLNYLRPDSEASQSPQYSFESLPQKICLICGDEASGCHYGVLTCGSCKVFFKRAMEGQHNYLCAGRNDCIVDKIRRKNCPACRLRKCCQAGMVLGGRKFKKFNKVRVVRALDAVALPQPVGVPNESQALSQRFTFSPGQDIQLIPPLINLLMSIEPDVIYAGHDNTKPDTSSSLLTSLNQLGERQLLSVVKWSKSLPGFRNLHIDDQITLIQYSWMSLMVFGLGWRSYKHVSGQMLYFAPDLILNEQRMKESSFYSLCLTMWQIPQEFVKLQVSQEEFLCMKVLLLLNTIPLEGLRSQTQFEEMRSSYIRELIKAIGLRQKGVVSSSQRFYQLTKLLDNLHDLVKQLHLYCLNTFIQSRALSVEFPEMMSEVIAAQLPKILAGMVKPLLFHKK
The format is functional.

For assay [6], the target named is T4, Type-1 angiotensin II receptor (Homo sapiens, UniProt P30556).
T4 sequence (P30556 whole entry): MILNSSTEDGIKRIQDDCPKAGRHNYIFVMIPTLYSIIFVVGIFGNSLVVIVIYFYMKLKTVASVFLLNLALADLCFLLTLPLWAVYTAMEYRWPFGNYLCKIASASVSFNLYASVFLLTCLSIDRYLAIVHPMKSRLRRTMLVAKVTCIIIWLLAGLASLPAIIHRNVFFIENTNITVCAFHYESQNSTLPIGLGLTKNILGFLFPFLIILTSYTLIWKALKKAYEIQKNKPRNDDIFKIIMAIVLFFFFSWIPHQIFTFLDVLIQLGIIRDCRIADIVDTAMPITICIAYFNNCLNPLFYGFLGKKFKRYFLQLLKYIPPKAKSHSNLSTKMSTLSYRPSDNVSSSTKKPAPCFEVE
Also: assay procedure not described here.

Sequence of Vasopressin V1a receptor (P37288 whole entry): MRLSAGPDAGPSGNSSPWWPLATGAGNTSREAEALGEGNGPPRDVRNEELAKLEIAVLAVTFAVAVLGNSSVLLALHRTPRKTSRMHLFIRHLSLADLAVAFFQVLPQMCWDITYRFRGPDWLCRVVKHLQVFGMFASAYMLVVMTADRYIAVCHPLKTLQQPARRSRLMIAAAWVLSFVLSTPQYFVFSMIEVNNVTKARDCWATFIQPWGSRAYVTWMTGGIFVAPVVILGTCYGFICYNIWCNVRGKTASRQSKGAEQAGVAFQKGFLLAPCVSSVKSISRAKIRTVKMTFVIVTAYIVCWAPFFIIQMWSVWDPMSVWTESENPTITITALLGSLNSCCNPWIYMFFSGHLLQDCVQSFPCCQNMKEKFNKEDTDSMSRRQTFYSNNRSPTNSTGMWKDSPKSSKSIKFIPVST
Sequence of Melanocortin receptor 3 (P41968 whole entry): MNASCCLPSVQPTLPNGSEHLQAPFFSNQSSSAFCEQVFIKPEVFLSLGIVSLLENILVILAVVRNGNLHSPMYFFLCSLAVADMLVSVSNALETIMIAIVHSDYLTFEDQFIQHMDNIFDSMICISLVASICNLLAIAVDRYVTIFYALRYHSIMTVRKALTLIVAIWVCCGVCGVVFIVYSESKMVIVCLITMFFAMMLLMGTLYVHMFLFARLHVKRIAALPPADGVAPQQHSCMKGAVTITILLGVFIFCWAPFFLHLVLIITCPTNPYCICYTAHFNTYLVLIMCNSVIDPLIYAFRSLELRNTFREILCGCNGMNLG
Sequence of Sodium-dependent noradrenaline transporter (P23975 whole entry): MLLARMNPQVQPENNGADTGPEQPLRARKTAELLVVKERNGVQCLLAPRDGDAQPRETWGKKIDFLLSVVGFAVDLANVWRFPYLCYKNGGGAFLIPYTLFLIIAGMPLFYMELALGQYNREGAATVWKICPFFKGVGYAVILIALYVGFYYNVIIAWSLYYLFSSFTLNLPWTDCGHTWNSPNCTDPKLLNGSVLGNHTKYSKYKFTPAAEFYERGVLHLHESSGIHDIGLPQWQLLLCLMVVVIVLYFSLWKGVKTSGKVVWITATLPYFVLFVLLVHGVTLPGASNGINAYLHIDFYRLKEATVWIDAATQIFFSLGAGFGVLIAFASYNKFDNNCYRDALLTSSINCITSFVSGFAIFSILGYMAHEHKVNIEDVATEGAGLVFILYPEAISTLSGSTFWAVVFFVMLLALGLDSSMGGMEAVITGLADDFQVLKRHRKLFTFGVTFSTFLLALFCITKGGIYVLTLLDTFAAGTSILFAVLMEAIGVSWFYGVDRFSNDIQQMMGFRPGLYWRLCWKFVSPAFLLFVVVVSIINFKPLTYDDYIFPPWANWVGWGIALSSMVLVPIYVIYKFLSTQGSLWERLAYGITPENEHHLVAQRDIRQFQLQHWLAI
Sequence of D(3) dopamine receptor (P35462 whole entry): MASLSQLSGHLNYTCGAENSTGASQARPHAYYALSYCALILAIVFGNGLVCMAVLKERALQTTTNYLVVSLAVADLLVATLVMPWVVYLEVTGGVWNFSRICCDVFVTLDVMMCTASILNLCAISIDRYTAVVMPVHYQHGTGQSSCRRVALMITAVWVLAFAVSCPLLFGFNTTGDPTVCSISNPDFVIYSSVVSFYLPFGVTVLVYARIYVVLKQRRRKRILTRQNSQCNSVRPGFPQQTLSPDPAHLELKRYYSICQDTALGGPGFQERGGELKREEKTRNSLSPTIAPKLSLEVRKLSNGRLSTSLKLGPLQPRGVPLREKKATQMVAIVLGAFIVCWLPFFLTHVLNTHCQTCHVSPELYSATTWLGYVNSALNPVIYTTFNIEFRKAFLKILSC
Sequence of Cannabinoid receptor 1 (P21554 whole entry): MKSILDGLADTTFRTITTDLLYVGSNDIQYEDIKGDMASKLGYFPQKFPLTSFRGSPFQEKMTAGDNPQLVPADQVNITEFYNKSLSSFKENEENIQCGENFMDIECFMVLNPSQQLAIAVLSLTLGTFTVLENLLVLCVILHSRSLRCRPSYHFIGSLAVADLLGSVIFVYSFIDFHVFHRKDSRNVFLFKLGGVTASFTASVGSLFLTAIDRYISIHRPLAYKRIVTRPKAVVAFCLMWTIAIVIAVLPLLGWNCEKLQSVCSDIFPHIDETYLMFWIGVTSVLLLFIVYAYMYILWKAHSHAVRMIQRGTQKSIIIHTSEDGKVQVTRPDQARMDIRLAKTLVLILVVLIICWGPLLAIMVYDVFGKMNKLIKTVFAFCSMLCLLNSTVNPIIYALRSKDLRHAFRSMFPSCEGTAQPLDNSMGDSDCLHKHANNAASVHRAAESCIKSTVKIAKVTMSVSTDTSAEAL
Sequence of 5-hydroxytryptamine receptor 2A (P28223 whole entry): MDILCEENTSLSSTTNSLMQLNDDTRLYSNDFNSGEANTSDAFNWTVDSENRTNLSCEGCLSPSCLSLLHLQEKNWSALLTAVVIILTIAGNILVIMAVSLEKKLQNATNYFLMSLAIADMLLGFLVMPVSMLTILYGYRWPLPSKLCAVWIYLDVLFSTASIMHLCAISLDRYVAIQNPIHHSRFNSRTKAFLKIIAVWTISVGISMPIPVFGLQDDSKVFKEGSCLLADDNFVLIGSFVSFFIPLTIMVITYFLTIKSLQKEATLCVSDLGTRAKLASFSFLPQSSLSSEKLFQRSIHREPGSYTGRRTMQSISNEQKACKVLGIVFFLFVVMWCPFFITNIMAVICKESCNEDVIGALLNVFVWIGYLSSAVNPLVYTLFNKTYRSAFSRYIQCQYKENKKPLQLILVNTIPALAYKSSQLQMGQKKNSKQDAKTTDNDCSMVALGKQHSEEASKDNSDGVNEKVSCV
Sequence of Growth hormone secretagogue receptor type 1 (Q92847 whole entry): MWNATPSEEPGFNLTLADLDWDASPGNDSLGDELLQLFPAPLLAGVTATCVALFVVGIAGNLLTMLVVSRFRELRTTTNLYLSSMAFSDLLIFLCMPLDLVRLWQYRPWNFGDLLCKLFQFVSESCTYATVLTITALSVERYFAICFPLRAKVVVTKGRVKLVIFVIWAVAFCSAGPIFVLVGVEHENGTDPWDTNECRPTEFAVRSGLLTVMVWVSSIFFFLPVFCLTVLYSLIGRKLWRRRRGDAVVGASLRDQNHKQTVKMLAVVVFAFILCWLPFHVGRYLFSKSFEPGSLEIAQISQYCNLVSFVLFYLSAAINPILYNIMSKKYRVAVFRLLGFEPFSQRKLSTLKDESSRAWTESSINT
Sequence of 5-hydroxytryptamine receptor 2B (P41595 whole entry): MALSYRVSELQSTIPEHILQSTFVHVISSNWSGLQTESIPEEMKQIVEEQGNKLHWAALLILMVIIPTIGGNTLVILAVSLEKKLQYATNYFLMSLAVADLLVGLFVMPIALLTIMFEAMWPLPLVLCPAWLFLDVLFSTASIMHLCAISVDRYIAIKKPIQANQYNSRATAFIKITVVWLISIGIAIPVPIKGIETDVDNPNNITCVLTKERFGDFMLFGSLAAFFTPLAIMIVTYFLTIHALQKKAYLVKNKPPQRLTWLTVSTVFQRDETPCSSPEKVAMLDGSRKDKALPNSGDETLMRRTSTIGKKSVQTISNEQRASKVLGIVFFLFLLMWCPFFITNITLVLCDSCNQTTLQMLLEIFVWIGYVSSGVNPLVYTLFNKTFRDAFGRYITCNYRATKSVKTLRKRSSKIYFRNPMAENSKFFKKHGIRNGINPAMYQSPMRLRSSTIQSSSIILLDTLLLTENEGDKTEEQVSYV

On to `Cc1ccc(-c2nc3ccc(C)cn3c2CC(=O)N(C)C)cc1` [ZOLPIDEM], for which the half-maximal activity concentration (AC50) (at D(3) dopamine receptor; on Melanocortin receptor 3; at Cannabinoid receptor 1; at Vasopressin V1a receptor; in assay [1]; in [2]) was above 30 µM throughout. The AC50 in assay [3] is 29 µM; on Thromboxane A2 receptor, above 30 µM; in [4] it was above 30 µM; in assay [5], above 30 µM; at Progesterone receptor, above 30 µM; in assay [6] it was above 30 µM.

For the compound `CN1CCN(C(=O)OC2c3nccnc3C(=O)N2c2ccc(Cl)cn2)CC1` (stereo unspecified) [ZOPICLONE], the AC50 was above 10 µM at D(3) dopamine receptor; above 30 µM on Melanocortin receptor 3; above 30 µM on Cannabinoid receptor 1; above 30 µM at Vasopressin V1a receptor; above 30 µM in assay [1]; above 30 µM in assay [2]. The AC50 in assay [3] is above 10 µM; on Thromboxane A2 receptor, above 30 µM; in assay [4] it was above 30 µM; in [5], above 30 µM; at Progesterone receptor, above 30 µM; in assay [6] it was above 30 µM.

With TOCOFERSOLAN, the AC50 (at D(3) dopamine receptor; at Melanocortin receptor 3; on Cannabinoid receptor 1; at Vasopressin V1a receptor; in [1]; in assay [2]) was above 30 µM throughout. The AC50 (in assay [3]; on Thromboxane A2 receptor; in assay [4]; in assay [5]; at Progesterone receptor; in assay [6]) was above 30 µM in each case.

As a reminder, the AC50 is the concentration giving half of the maximal activity seen. Low values mean greater potency, high ones weaker potency.

The record behind these values is ChEMBL document CHEMBL5291721, “A preclinical secondary pharmacology resource illuminates target-adverse drug reaction associations of marketed drugs” (Nat Commun, 2023).
